In patent US20240299595A1, “CANCER THERANOSTIC COMPOSITIONS COMPRISING BIGUANIDE COMPLEXES OF GROUP 7 TRANSITION METALS AND USES THEREOF” (BOARD OF REGENTS, THE UNIVERSITY OF TEXAS SYSTEM, priority 2021, published 2024):

Test system: SKOV3
Test: MTT cytotoxicity, ovarian cancer cell line SKOV3
Assay type: cell-based, human
Experimental: Finally, a comparison study of the cytotoxicity of Re-Phen and phenformin in a panel of ovarian cancer cell lines by MTT assay after a 72 hour incubation period was conducted. Ovarian cells were seeded at 5000 cells/well in 96-well plates overnight, and treated with Re-Phen or phenformin in different concentrations (from 4.57×10^−4 mM to 1.0 mM in 3-fold increase) at 37° C. for 72 hours. Cell viability was measured using the MTT assay. The absorption at 590 nm was measured at microplate reader (SpectraMax, Molecular Device, San Diego, CA) to quantify cell numbers. The proportion of cells was normalized to that of untreated cells and expressed as mean±standard error of the mean (SEM) (n=5-6). The resulting reduced viability with half-maximal inhibitory concentration (IC50) values of mM were calculated by a sigmoidal dose-response (variable slope) curve-fitting using GraphPad Prism software. The data are shown in FIG. 19A (Re-Phen) and FIG. 19B (phenformin). […] In fact, Re-Phen is shown to display >2,000-fold and >5,000-fold higher cytotoxicity against OVACAR-8 and SKOV3 (Table 2) human ovarian cancer cell lines, respectively.

## N=C(N)NC(=N)NCCc1ccccc1.[C-]#[O+].[C-]#[O+].[C-]#[O+].[Re+] [Re-Phen]
MTT, 72 hours
  IC50: 35 µM
Re-Phen versus phenformin, Table 2
  fold higher cytotoxicity against SKOV3: > 5,000 fold
